Source: patent US9833497B2, “Human originated EGF domain proteins and use of the same” (CHENGDU SOURCEBIO LIMITED-LIABILITY COMPANY, priority 2013, dated 2017)

Legend:
Assay type in all cases: cell-based
Proteus mirabilis = test: MIC against Gram-negative bacteria: Proteus mirabilis; settings: for MIC (μg/mL) P. mirabilis / MIC: 10 h cultivation at 37° C., P. mirabilis
How it was run: (§1)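 Purified recombinant human EGF domain proteins are tested by broth dilution in LB against a 5×10^5 CFU/mL inoculum, with two-fold serial dilutions run in triplicate. Plates are incubated at 37° C with shaking, and the MIC is read as the lowest protein concentration without growth.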

Aeromonas hydrophila = test: MIC against Gram-negative bacteria: Aeromonas hydrophila; settings: for MIC (μg/mL) A. hydrophila / MIC: 10 h cultivation at 37° C., A. hydrophila
How it was run: as §1

Serratia marcescens = test: MIC against Gram-negative bacteria: Serratia marcescens; settings: for MIC (μg/mL) S. marcescens / MIC: 10 h cultivation at 37° C., S. marcescens
How it was run: as §1

E. coli DH5α = test: Antibacterial activity: MIC and growth curve against E. coli DH5α in 96-well plate; settings: minimal inhibitory concentration against E. coli DH5α; 96-well plate, 5×10^5 CFU/mL, 37° C., judged after 8 h
How it was run: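 Log-phase DH5α (OD600 about 0.5, 37° C, 185 rpm in LB) was pelleted, resuspended in fresh LB and seeded at 5×10^5 CFU/mL with recombinant protein at 50, 25 and 12.5 μg/mL (two-fold series), in triplicate. Plates were shaken at 175 rpm, 37° C, and OD600 was read every 30 min. MIC was the lowest concentration with no growth.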

E. coli BL21 = test: MIC against Gram-negative bacteria: E. coli BL21; settings: for MIC (μg/mL) E. coli BL21 / MIC: 10 h cultivation at 37° C., E. coli BL21
How it was run: as §1

Pseudomonas aeruginosa = test: MIC against Gram-negative bacteria: Pseudomonas aeruginosa; settings: for MIC (μg/mL) P. aeruginosa / MIC: 10 h cultivation at 37° C., P. aeruginosa
How it was run: as §1

Klebsiella pneumonia = test: MIC against Gram-negative bacteria: Klebsiella pneumonia; settings: for MIC (μg/mL) K. pneumonia / MIC: 10 h cultivation at 37° C., K. pneumonia
How it was run: as §1

Citrobacter diversus = test: MIC against Gram-negative bacteria: Citrobacter diversus; settings: for MIC (μg/mL) C. diversus / MIC: 10 h cultivation at 37° C., C. diversus
How it was run: as §1

Moraxella catarrhalis = test: MIC against Gram-negative bacteria: Moraxella catarrhalis; settings: for MIC (μg/mL) M. catarrhalis / MIC: 10 h cultivation at 37° C., M. catarrhalis
How it was run: as §1

Enterobacter cloacae = test: MIC against Gram-negative bacteria: Enterobacter cloacae; settings: for MIC (μg/mL) E. cloacae / MIC: 10 h cultivation at 37° C., E. cloacae
How it was run: as §1

Proteus vulgaris = test: MIC against Gram-negative bacteria: Proteus vulgaris; settings: for MIC (μg/mL) P. vulgaris / MIC: 10 h cultivation at 37° C., P. vulgaris
How it was run: as §1

[1] = 96-well plate, 5×10^5 CFU/mL, 37° C., 10 h

Substance	MIC (μg/mL) P. mirabilis (Proteus mirabilis; 5×10^5 CFU/mL) [µg/mL]	MIC (μg/mL) A. hydrophila (Aeromonas hydrophila; 5×10^5 CFU/mL) [µg/mL]	MIC (μg/mL) S. marcescens (Serratia marcescens; 5×10^5 CFU/mL) [µg/mL]	MIC (E. coli DH5α) [µg/mL]	MIC (μg/mL) E. coli BL21 (E. coli BL21; 5×10^5 CFU/mL) [µg/mL]	MIC (μg/mL) P. aeruginosa (Pseudomonas aeruginosa; 5×10^5 CFU/mL) [µg/mL]	MIC (μg/mL) K. pneumonia (Klebsiella pneumonia; 5×10^5 CFU/mL) [µg/mL]	MIC (μg/mL) C. diversus (Citrobacter diversus; 5×10^5 CFU/mL) [µg/mL]	MIC (μg/mL) M. catarrhalis (Moraxella catarrhalis; 5×10^5 CFU/mL) [µg/mL]	MIC (μg/mL) E. cloacae (Enterobacter cloacae; 5×10^5 CFU/mL) [µg/mL]	MIC (μg/mL) P. vulgaris (Proteus vulgaris; 5×10^5 CFU/mL) [µg/mL]	other results
PRT258 (CSHPDRGGCSENAECVPGSLGTHHCTCHKGWSGDGRVC; listed as Homo sapiens)	25	12.5	25	50	12.5	50	12.5	25	12.5	50	50	
PRT176 (APLVCRAGCSPEHGFCEQPGECRCLEGWTGPLCT; listed as Homo sapiens)	25	12.5	25	25	12.5	25	12.5	25	50	25	12.5	
PRT824 (YGPGCEQLCGCLNGGSCDAATGACRCPTGFLGTDCN; listed as Homo sapiens)	12.5	25	25	12.5	25	50	25	50	25	12.5	50	
PRT438 (DIDECALGRHTCHAGQDCDNTIGSYRCVVRCGSGFRRTSDGLSCQ; listed as Homo sapiens)				25								MIC (Proteus mirabilis; 5×10^5 CFU/mL): 50 µg/mL; MIC (Aeromonas hydrophila; 5×10^5 CFU/mL): 12.5 µg/mL; MIC (Serratia marcescens; 5×10^5 CFU/mL): 50 µg/mL; MIC (E. coli BL21; 5×10^5 CFU/mL): 12.5 µg/mL; MIC (Pseudomonas aeruginosa; 5×10^5 CFU/mL): 50 µg/mL; MIC (Klebsiella pneumonia; 5×10^5 CFU/mL): 12.5 µg/mL; MIC (Citrobacter diversus; 5×10^5 CFU/mL): 50 µg/mL; MIC (Moraxella catarrhalis; 5×10^5 CFU/mL): 12.5 µg/mL; MIC (Enterobacter cloacae; 5×10^5 CFU/mL): 50 µg/mL; MIC (Proteus vulgaris; 5×10^5 CFU/mL): 12.5 µg/mL
PRT733 (SSNGCSNNMNACQQICLPVPGGLFSCACATGFKLNPDNRSCS; listed as Homo sapiens)				50								MIC P. mirabilis (Proteus mirabilis; [1]): 25 µg/mL; MIC A. hydrophila (Aeromonas hydrophila; [1]): 12.5 µg/mL; MIC S. marcescens (Serratia marcescens; [1]): 25 µg/mL; MIC E. coli BL21 (E. coli BL21; [1]): 12.5 µg/mL; MIC P. aeruginosa (Pseudomonas aeruginosa; [1]): 50 µg/mL; MIC K. pneumonia (Klebsiella pneumonia; [1]): 12.5 µg/mL; MIC C. diversus (Citrobacter diversus; [1]): 25 µg/mL; MIC M. catarrhalis (Moraxella catarrhalis; [1]): 50 µg/mL; MIC E. cloacae (Enterobacter cloacae; [1]): 50 µg/mL; MIC P. vulgaris (Proteus vulgaris; [1]): 12.5 µg/mL
PRT943 (PNVSCDIAASRRGVLVEHLCQHSGVCINAGNTHYCQCPLGYTGSYCE; listed as Homo sapiens)				12.5								MIC (Proteus mirabilis): 12.5 µg/mL; MIC (Aeromonas hydrophila): 12.5 µg/mL; MIC (Serratia marcescens): 50 µg/mL; MIC (E. coli BL21): 12.5 µg/mL; MIC (Pseudomonas aeruginosa): 12.5 µg/mL; MIC (Klebsiella pneumonia): 12.5 µg/mL; MIC (Citrobacter diversus): 12.5 µg/mL; MIC (Moraxella catarrhalis): 12.5 µg/mL; MIC (Enterobacter cloacae): 25 µg/mL; MIC (Proteus vulgaris): 12.5 µg/mL
